Several values for one entry are separate records, joined by “and”; a condition that tells them apart may be missing. Identical values can stand only once.
Assays:
[1] = test system: Tor1 and Fas1 malonylation; experiment: Malonylation of immunopurified HA-Tor1 and Fas1-HA (anti-Mal-K) from yeast cells; assay type: cell-based, Saccharomyces cerevisiae
Method: For the yeast co-immunoprecipitations experiments, cells were collected by filtration and immediately frozen in liquid nitrogen. […] Total cell extracts were recovered from the beads and cleared by centrifugation. At this stage, samples were taken for input analysis and denatured with a Laemmli-based sample buffer (350 mM Tris–HCl pH 6.8, 30% glycerol, 600 mM DTT, 10% SDS and 0.2 mg ml^−1 bromophenol blue). The cleared lysates (10–20 mg) were incubated for 2 h at 4 °C with magnetic beads pre-conjugated with anti-HA (cat. no. 88837, Pierce). The beads were then washed five times with high salt lysis buffer (50 mM Tris–HCl pH 7.5, 300 mM NaCl, 10% glycerol and 0.1% Nonidet P40) and eventually resuspended in 20 μl lysis buffer and 20 μl 2×Laemmli buffer.

TORC1 [2] = target: T1, TORC1 (Saccharomyces cerevisiae, UniProt P35169); experiment: MST binding affinity assays with fluorescent TORC1 (GFP–Tor1)
T1 construct: made in house; host or cells: S. cerevisiae strain NIC005 ([RL170-2c] LEU2:GFP-TOR1)
Method: The MST experiments were performed using a Monolith NT.115 (Nanotemper Technologies). Purification of TORC1 containing the N-terminally GFP-tagged Tor1 subunit was carried out as described previously. For the protein–protein interaction experiments, GFP–Tor1-containing TORC1 (7.5 nM) was mixed with a series of twofold dilutions (a total of 16 samples) of Acc1 (highest concentration, 80 nM) or Fas1 (highest concentration, 20 nM) purified from yeast through TAP-tag immuno-enrichment with rabbit IgG-coated magnetic beads and subsequent TEV cleavage in elution buffer (50 mM HEPES NaOH pH 7.5 and 150 mM NaCl) for 1 h at 18 °C. The samples were loaded into Monolith NT.115 capillaries and MST measurements were performed using 80% laser power and medium MST power setting at 30 °C. For the small molecule–protein interaction experiments, GFP–Tor1-containing TORC1 (7.5 nM) was mixed with a series of twofold dilutions (a total of 16 samples) of Mal-CoA (M4263, Sigma-Aldrich; highest concentration, 5 mM) dissolved in 50 mM HEPES pH 7.5. The samples were loaded into Monolith NT.115 capillaries and MST measurements were performed using 80% laser power and medium MST power setting at 30 °C. The experiments were performed in triplicate and data were fitted using the Kd model of the MO.Affinity Analysis software (Nanotemper Technologies). The signal-to-noise ratio represents the response amplitude divided by the noise of the measurement. The Kd value was obtained by plotting the bound fraction against the log-transformed ligand concentration.

TORC1 [3] = target: T1, TORC1; experiment: Yeast TORC1 kinase activity assays (radioactive IVK, Lst4^Loop substrate); assay type: biochemical; details: for In vitro TORC1 kinase assay - CoA compounds, relative activity, Mean: Fig. 8b; for In vitro TORC1 kinase assay - Mal-CoA/ATP competition, relative activity, Mean: Fig. 8h
Method: TORC1 was purified from yeast cells and radioactive IVK assays were performed essentially as previously described. Briefly, kinase reactions (total volume, 30 μl) were performed with 400 ng of purified His6–Lst4^Loop protein and 60 ng TORC1 in kinase buffer (50 mM HEPES NaOH pH 7.5 and 150 mM NaCl). […] All reactions were carried out at 30 °C for 10 min and stopped with the addition of 3×sample buffer (50 mM Tris–HCl pH 6.8, 5% SDS, 0.05% bromophenol blue, 630 mM DTT and 30% glycerol) and heating at 65 °C for 10 min. Proteins were separated by SDS–PAGE and stained in-gel with SYPRO Ruby (S4942, Sigma-Aldrich) as the loading control. Substrate phosphorylation was analysed by autoradiography using a Typhoon FLA 9500 phosphorimager (GE Healthcare) and the raw density of the signals was quantified using the gel analysis tool of ImageJ.

[4] = target: T2, mTORC1 containing mTOR^K1218R; experiment: mTORC1 IVK with SBP-tagged mTOR^K1218R and HA–Raptor; assay type: biochemical, human; details: presence or absence of 5 mM Mal-CoA
T2 construct: expressed in transfected cells; host or cells: HEK293FT
Method: Briefly, cells of a near-confluent well of a six-well plate were lysed in CHAPS IP buffer (50 mM Tris pH 7.5, 0.3% CHAPS detergent, 150 mM NaCl, 50 mM NaF, 2 mM Na-vanadate and 0.011 g ml^−1 β-glycerophosphate) supplemented with 1×PhosSTOP phosphatase inhibitors and 1×EDTA-free cOmplete protease inhibitors for 10 min on ice, and the samples were clarified by centrifugation (20,000g, 15 min, 4 °C). Each supernatant was split in three equal fractions and each fraction was incubated (4 °C with rotation) with 20 μl of pre-washed Streptavidin Sepharose (cat. no. 90100484, Cytiva) for 1 h. The beads were then washed three times with CHAPS IP wash buffer (50 mM Tris pH 7.5, 0.3% CHAPS, 150 mM NaCl and 50 mM NaF) and either used for IVK assays (‘Mammalian mTORC1 kinase activity assays’ section) or boiled in 2×SDS loading buffer (5 min, 95 °C) and analysed by SDS–PAGE and immunoblotting to assess the stability of the mTOR complex.
In vitro activity assays were performed as described earlier for endogenous mTOR complexes.
Endogenous mTOR was immunoprecipitated in the presence or absence of 1 mM Mal-CoA (added directly in the lysates 5 min previous to addition of the antibody). Co-immunoprecipitation of Raptor and mLST8 assayed by immunoblotting; n = 2 independent experiments. c, Mal-CoA inhibits mTORC1 independently from mTOR malonylation. […] Data are the mean ± s.d. (a) or mean ± s.e.m. […]

T1 sequence (P35169 whole entry): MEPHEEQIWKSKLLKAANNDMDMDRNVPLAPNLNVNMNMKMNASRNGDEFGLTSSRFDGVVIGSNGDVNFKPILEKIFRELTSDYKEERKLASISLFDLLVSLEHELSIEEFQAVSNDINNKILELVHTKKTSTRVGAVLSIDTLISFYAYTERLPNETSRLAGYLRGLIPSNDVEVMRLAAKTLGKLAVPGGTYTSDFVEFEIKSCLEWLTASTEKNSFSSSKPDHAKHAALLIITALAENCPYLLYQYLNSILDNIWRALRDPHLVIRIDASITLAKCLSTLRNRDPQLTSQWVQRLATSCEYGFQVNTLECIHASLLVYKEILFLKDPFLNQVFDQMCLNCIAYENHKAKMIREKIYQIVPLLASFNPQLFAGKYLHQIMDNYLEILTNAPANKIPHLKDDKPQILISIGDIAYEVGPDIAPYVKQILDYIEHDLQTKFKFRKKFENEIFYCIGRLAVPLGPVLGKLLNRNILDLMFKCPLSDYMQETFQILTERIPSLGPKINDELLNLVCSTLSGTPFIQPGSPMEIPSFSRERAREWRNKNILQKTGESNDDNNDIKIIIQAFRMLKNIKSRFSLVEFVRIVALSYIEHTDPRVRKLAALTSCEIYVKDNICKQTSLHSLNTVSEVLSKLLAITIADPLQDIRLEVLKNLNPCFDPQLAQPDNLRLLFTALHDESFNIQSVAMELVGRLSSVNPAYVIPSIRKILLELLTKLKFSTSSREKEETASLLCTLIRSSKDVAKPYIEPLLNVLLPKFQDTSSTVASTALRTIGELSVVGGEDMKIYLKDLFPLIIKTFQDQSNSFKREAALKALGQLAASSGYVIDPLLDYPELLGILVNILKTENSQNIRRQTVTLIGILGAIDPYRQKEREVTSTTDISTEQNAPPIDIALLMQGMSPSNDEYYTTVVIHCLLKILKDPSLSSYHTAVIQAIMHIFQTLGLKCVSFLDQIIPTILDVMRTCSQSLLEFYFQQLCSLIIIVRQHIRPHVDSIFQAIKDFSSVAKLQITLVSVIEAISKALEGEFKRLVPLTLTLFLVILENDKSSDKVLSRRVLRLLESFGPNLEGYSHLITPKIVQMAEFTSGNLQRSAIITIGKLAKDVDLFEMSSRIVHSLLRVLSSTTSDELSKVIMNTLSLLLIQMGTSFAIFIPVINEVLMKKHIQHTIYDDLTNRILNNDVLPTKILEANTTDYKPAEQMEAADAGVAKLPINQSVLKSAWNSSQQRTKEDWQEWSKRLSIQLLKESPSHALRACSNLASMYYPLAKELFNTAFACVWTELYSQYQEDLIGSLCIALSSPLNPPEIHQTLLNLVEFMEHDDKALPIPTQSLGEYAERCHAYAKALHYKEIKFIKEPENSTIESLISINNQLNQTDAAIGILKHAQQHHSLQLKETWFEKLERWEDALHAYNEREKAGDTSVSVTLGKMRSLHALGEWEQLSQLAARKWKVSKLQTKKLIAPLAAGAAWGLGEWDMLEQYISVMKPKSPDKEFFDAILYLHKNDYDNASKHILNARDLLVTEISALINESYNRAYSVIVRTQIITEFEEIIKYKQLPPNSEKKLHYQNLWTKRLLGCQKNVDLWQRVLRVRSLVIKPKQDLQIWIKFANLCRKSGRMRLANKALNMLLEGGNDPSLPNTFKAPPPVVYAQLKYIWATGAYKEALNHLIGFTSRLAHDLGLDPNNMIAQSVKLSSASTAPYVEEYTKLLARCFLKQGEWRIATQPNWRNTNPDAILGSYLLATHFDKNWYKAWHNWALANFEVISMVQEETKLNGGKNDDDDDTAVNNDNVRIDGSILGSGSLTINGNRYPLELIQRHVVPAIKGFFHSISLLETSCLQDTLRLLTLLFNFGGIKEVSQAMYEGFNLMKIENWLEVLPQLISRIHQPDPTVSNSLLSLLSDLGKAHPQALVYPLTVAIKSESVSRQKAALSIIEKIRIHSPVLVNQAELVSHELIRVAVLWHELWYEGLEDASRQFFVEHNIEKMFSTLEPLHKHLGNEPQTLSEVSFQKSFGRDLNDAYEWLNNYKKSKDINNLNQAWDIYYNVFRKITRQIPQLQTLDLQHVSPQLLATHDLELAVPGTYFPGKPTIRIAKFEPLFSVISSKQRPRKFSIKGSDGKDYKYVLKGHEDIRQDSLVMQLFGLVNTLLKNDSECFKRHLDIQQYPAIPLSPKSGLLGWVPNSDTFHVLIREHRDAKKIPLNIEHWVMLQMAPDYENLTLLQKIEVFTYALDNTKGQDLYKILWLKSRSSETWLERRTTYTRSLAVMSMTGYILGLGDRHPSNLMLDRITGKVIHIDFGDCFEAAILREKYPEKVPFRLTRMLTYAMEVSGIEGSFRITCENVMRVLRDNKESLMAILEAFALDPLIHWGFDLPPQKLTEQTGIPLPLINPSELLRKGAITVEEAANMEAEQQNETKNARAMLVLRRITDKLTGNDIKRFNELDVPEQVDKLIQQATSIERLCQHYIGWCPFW
T1 sequence (Q08921 whole entry partner): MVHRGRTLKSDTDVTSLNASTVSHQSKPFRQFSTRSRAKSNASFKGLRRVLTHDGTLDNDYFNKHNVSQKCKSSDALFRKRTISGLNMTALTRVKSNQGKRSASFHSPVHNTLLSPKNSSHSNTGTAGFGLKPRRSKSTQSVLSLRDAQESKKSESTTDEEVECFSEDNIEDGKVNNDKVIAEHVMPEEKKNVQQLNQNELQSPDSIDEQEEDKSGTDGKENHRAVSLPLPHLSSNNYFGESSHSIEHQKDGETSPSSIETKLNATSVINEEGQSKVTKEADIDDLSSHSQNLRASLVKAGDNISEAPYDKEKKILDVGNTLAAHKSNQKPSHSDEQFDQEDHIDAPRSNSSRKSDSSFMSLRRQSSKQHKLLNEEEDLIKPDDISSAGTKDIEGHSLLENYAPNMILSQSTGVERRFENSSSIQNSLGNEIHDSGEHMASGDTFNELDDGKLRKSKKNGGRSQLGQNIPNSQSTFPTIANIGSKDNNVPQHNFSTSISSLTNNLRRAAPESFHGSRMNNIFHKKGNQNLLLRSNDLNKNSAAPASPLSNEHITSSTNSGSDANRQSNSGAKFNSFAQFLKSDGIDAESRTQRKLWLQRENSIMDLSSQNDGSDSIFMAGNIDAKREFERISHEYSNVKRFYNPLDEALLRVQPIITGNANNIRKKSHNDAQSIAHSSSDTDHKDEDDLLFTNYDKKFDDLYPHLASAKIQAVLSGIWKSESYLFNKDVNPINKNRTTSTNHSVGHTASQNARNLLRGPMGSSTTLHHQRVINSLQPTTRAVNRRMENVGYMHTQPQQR
T1 sequence (P38873 whole entry partner): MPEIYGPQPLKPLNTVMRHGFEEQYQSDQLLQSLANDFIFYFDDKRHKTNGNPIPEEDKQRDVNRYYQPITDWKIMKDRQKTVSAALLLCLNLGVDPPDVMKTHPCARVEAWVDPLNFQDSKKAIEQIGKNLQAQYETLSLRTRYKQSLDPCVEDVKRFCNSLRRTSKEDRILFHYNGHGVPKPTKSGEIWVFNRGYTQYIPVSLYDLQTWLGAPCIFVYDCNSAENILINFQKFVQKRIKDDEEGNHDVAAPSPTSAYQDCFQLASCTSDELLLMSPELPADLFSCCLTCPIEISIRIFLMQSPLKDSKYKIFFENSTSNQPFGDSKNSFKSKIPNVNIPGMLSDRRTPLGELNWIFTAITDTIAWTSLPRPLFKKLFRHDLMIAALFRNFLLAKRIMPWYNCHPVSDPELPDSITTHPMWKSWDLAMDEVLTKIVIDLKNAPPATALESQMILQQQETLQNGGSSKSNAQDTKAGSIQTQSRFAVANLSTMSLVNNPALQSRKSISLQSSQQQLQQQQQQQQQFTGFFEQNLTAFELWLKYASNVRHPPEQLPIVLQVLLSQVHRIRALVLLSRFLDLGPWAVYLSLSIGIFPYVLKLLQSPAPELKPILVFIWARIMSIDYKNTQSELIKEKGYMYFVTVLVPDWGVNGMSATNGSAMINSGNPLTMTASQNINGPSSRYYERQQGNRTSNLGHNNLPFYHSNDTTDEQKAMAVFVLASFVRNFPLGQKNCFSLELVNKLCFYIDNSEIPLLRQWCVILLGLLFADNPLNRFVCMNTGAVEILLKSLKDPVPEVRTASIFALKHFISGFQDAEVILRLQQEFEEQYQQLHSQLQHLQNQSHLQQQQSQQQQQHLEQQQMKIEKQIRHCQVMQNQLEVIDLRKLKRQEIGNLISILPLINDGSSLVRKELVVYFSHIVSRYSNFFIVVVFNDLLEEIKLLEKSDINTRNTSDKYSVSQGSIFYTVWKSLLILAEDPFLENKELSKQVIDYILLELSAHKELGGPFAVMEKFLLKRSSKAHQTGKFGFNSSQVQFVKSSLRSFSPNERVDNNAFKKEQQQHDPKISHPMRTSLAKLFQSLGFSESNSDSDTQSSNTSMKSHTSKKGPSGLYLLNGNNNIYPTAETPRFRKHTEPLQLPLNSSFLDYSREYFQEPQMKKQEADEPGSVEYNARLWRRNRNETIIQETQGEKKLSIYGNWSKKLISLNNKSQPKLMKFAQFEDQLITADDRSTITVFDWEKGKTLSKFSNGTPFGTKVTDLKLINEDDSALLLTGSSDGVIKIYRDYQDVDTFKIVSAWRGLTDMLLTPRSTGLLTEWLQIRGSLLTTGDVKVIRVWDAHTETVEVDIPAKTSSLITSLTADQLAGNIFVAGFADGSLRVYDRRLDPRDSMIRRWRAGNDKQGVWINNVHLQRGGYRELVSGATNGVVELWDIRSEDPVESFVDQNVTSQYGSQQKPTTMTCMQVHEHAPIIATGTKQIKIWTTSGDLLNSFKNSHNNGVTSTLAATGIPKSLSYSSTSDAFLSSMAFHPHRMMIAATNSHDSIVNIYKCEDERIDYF
T1 sequence (P41318 whole entry partner): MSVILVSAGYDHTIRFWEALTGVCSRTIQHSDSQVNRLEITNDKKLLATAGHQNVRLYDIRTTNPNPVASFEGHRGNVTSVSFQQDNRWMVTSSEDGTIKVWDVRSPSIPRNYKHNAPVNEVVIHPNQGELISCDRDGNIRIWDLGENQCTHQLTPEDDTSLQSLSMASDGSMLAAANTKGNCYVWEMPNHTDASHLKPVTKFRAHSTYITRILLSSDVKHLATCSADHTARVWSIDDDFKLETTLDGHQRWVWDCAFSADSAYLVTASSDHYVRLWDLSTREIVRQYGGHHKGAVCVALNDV

C/C=C/C/C=C/CCC(=O)[C@H]1O[C@H]1C(N)=O [cerulenin]
lysine malonylation of immunopurified yeast Fas1 ([1]; cerulenin-treated (10 μM, 2 h) vs control): malonylation increasing further
malonylation of immunopurified yeast Tor1 ([1]; control or cerulenin-treated (10 μM, 2 h)): unable to detect malonylation

CC(C)(COP(=O)(O)OP(=O)(O)OCC1OC(n2cnc3c(N)ncnc32)C(O)C1OP(=O)(O)O)C(O)C(=O)NCCC(=O)NCCSC(=O)CC(=O)O (stereo not drawn) [Mal-CoA, malonyl-CoA]
Fraction bound transformed (TORC1 [2]; Mal-CoA 1.52588e-7 M): -0.1669
Mean Fnorm (TORC1 [2]; Mal-CoA 1.52588e-7 M): 842.758 ‰
Fnorm (TORC1 [2]; Mal-CoA 1.52588e-7 M, Replicates 1-3 (ED Fig. 10a)): 842.278 ‰ and 840.902 ‰ and 845.093 ‰
Fraction bound transformed (TORC1 [2]; Mal-CoA 3.05176e-7 M): 0.1808
Mean Fnorm (TORC1 [2]; Mal-CoA 3.05176e-7 M): 838.674 ‰
Fnorm (TORC1 [2]; Mal-CoA 3.05176e-7 M, Replicates 1-2 (ED Fig. 10a)): 836.322 ‰ and 841.026 ‰
Fraction bound transformed (TORC1 [2]; Mal-CoA 6.10352e-7 M): -0.2372
Mean Fnorm (TORC1 [2]; Mal-CoA 6.10352e-7 M): 843.583 ‰
Fnorm (TORC1 [2]; Mal-CoA 6.10352e-7 M, Replicates 1-3 (ED Fig. 10a)): 840.469 ‰ and 846.42 ‰ and 843.86 ‰
Fraction bound transformed (TORC1 [2]; Mal-CoA 1.2207e-6 M): 0.2149
Mean Fnorm (TORC1 [2]; Mal-CoA 1.2207e-6 M): 838.273 ‰
Fnorm (TORC1 [2]; Mal-CoA 1.2207e-6 M, Replicates 1-3 (ED Fig. 10a)): 837.823 ‰ and 838.78 ‰ and 838.217 ‰
Fraction bound transformed (TORC1 [2]; Mal-CoA 2.44141e-6 M): 0.1801
Mean Fnorm (TORC1 [2]; Mal-CoA 2.44141e-6 M): 838.682 ‰
Fnorm (TORC1 [2]; Mal-CoA 2.44141e-6 M, Replicates 1-3 (ED Fig. 10a)): 839.959 ‰ and 836.5 ‰ and 839.586 ‰
Fraction bound transformed (TORC1 [2]; Mal-CoA 4.88281e-6 M): 0.2862
Mean Fnorm (TORC1 [2]; Mal-CoA 4.88281e-6 M): 837.436 ‰
Fnorm (TORC1 [2]; Mal-CoA 4.88281e-6 M, Replicates 1-3 (ED Fig. 10a)): 839.798 ‰ and 836.387 ‰ and 836.122 ‰
Fraction bound transformed (TORC1 [2]; Mal-CoA 9.76563e-6 M): 0.3923
Mean Fnorm (TORC1 [2]; Mal-CoA 9.76563e-6 M): 836.19 ‰
Fnorm (TORC1 [2]; Mal-CoA 9.76563e-6 M, Replicates 1-3 (ED Fig. 10a)): 834.741 ‰ and 836.18 ‰ and 837.648 ‰
Fraction bound transformed (TORC1 [2]; Mal-CoA 1.95313e-5 M): 0.495
Mean Fnorm (TORC1 [2]; Mal-CoA 1.95313e-5 M): 834.984 ‰
Fnorm (TORC1 [2]; Mal-CoA 1.95313e-5 M, Replicates 1-3 (ED Fig. 10a)): 835.416 ‰ and 833.302 ‰ and 836.235 ‰
Fraction bound transformed (TORC1 [2]; Mal-CoA 3.90625e-5 M): 0.697
Mean Fnorm (TORC1 [2]; Mal-CoA 3.90625e-5 M): 832.611 ‰
Fnorm (TORC1 [2]; Mal-CoA 3.90625e-5 M, Replicates 1-3 (ED Fig. 10a)): 833.941 ‰ and 832.342 ‰ and 831.55 ‰
Fraction bound transformed (TORC1 [2]; Mal-CoA 7.8125e-5 M): 0.721
Mean Fnorm (TORC1 [2]; Mal-CoA 7.8125e-5 M): 832.33 ‰
Fnorm (TORC1 [2]; Mal-CoA 7.8125e-5 M, Replicates 2-3 (ED Fig. 10a)): 830.576 ‰ and 834.083 ‰
Fraction bound transformed (TORC1 [2]; Mal-CoA 0.00015625 M): 0.6458
Mean Fnorm (TORC1 [2]; Mal-CoA 0.00015625 M): 833.212 ‰
Fnorm (TORC1 [2]; Mal-CoA 0.00015625 M, Replicates 1-3 (ED Fig. 10a)): 833.177 ‰ and 832.509 ‰ and 833.951 ‰
Fraction bound transformed (TORC1 [2]; Mal-CoA 0.0003125 M): 0.8154
Mean Fnorm (TORC1 [2]; Mal-CoA 0.0003125 M): 831.221 ‰
Fnorm (TORC1 [2]; Mal-CoA 0.0003125 M, Replicates 1-3 (ED Fig. 10a)): 828.879 ‰ and 833.898 ‰ and 830.884 ‰
Fraction bound transformed (TORC1 [2]; Mal-CoA 0.00125 M): 0.8761
Mean Fnorm (TORC1 [2]; Mal-CoA 0.00125 M): 830.508 ‰
Fnorm (TORC1 [2]; Mal-CoA 0.00125 M, Replicates 1-3 (ED Fig. 10a)): 830.373 ‰ and 829.245 ‰ and 831.906 ‰
Fraction bound transformed (TORC1 [2]; Mal-CoA 0.0025 M): 1.1671
Mean Fnorm (TORC1 [2]; Mal-CoA 0.0025 M): 827.09 ‰
Fnorm (TORC1 [2]; Mal-CoA 0.0025 M, Replicates 1-3 (ED Fig. 10a)): 828.614 ‰ and 826.728 ‰ and 825.93 ‰
Fraction bound transformed (TORC1 [2]; Mal-CoA 0.005 M): 1.112
Mean Fnorm (TORC1 [2]; Mal-CoA 0.005 M): 827.742 ‰
Fnorm (TORC1 [2]; Mal-CoA 0.005 M, Replicates 1-3 (ED Fig. 10a)): 831.215 ‰ and 831.366 ‰ and 820.645 ‰
Fraction bound transformed (TORC1 [2]; Mal-CoA […]): 1.135
Mean Fnorm (TORC1 [2]; Mal-CoA […]): 827.462 ‰
Kd (TORC1 [2]; purified yeast TORC1 (GFP–Tor1) 7.5 nM, 30 °C, mean ± s.d., n = 3, read-out: Kd (binding of Mal-CoA to TORC1, MST)): 19.3 µM
IC50 (TORC1 [3]): 334 µM
Ki (TORC1 [3]): 760 µM
In vitro TORC1 kinase assay - CoA compounds, relative activity, Mean (TORC1 [3]; compound 0.073 mM, normalised to this concentration): 1
In vitro TORC1 kinase assay - CoA compounds, relative activity, Mean (TORC1 [3]; compound 0.22 mM): 0.8807
In vitro TORC1 kinase assay - CoA compounds, relative activity, Mean (TORC1 [3]; compound 2 mM): 0.6407
In vitro TORC1 kinase assay - CoA compounds, relative activity, Mean (TORC1 [3]; compound 6 mM): 0.5014
In vitro TORC1 kinase assay - Mal-CoA/ATP competition, relative activity, Mean (TORC1 [3]; Mal-CoA 2 mM, ATP 0.015 mM): 0.1115
In vitro TORC1 kinase assay - Mal-CoA/ATP competition, relative activity, Mean (TORC1 [3]; Mal-CoA 2 mM, ATP 0.044 mM): 0.189
In vitro TORC1 kinase assay - Mal-CoA/ATP competition, relative activity, Mean (TORC1 [3]; Mal-CoA 2 mM, ATP 0.4 mM): 0.6161
In vitro TORC1 kinase assay - Mal-CoA/ATP competition, relative activity, Mean (TORC1 [3]; Mal-CoA […], ATP 0.015 mM): 0.1191
In vitro TORC1 kinase assay - Mal-CoA/ATP competition, relative activity, Mean (TORC1 [3]; Mal-CoA […], ATP 0.044 mM): 0.2424
In vitro TORC1 kinase assay - Mal-CoA/ATP competition, relative activity, Mean (TORC1 [3]; Mal-CoA […], ATP 0.4 mM): 0.6289
kinase activity of mTORC1 containing non-malonylatable mTOR^K1218R [4]: readily inhibited

— publication PMC10495264 (Nature Cell Biology, 2023)
